Assay results as given in patent publication US12491180B2, “Application of compound in treating pneumonia” (SHENZHEN OPTIMUM BIOLOGICAL TECHNOLOGY CO., LTD., priority 2019, dated 2025).
Values after ≈ are worked out from the molar mass of the structure shown.

Assays:
Experiment in all cases: MIC, solid dilution method
E. ae 14186 = format: cell-based, Enterobacter aerogenes; details: Klebsiella aerogenes; E. ae 14186; MHA agar, 37° C., 16-20 hours; read-out: MIC
Experimental: (§1) The above-mentioned glycerol-preserved strains were taken out from the −80° C. refrigerator, streaked and inoculated on MHA plates, labeled, and cultured overnight in a 37° C. incubator.
(§2) The inoculum was prepared directly from bacterial suspension, and several recovered colonies were picked and directly prepared into a bacterial suspension with a turbidity of No. 0.5 McFarland units in normal saline, and a 10-fold dilution was made during inoculation.
(§3) 6 bottles of MHA culture medium 500 mL/bottle were prepared, and the pH was adjusted to 7.2-7.4, sterilized at 121° C. for 15 min, and the medium was placed in a 55° C. water bath to keep warm.
(§4) Sterile blank petri dishes were taken, and marked with each FL drug/concentration according to 2-fold dilution, and 10 concentrations of each drug starting from 8 μg/mL were tested.
(§5) […]; 20 mL was aspirated and added to a petri dish consistent with the mark, and then 20 mL of MHA culture medium was added to the rest of the drug-containing culture medium, mixed evenly, that is, the 2-fold diluted drug-containing culture medium; 20 mL was aspirated and added to the petri dish consistent with the mark, and then diluted to the 10th concentration and the […] respectively by repeating the above-mentioned steps, and then poured into the petri dish.
(§6) 4 bacterial control petri dishes without drug were prepared at the same time as a control.
(§7) The positioning needle and the inoculation needle were installed according to the order of placement of the colony on the inoculation plate. After inoculation, a bacterial solution circle was formed on the petri dish. After the bacterial solution was absorbed by the agar, the petri dish was placed in an incubator at 37° C. for overnight incubation (16-20 hours), and then taken out.
(§8) The minimum inhibitory concentrations of the compounds against the CRE and CSE strains were determined by the solid dilution method, and the results are shown in Tables 3 and 4.

[1] = test system: Escherichia coli ATCC25922; format: cell-based; details: E. coli ATCC25922, standard strain, MHA agar, 37° C., 16-20 hours, read-out: MIC
Experimental: (§9) (1) Standard strains: Escherichia coli BAA-2452, Escherichia coli ATCC25922, Klebsiella pneumoniae BAA-1705; all purchased from ATCC.
as §1, §2, §3, §4, §5, §6, §7, §8

[2] = test system: Escherichia coli BAA-2452; format: cell-based; details: BAA2452, E. coli BAA-2452, standard strain, MHA agar, 37° C., 16-20 hours, read-out: MIC
Experimental: as §9, §1, §2, §3, §4, §5, §6, §7, §8

[3] = test system: Klebsiella pneumoniae BAA-1705; format: cell-based; details: BAA1705, K.p BAA-1705, standard strain, MHA agar, 37° C., 16-20 hours, read-out: MIC
Experimental: as §9, §1, §2, §3, §4, §5, §6, §7, §8

[4] = test system: Klebsiella pneumoniae 11544; format: cell-based; details: K.p 11544, CRE clinical isolate, MHA agar, 37° C., 16-20 hours, read-out: MIC
Experimental: (§10) (2) Clinical isolated strains: CRE Klebsiella pneumoniae 5846, 11544, 12559, 13249 and CSE Klebsiella pneumoniae 8733, a total of 5 strains;
as §1, §2, §3, §4, §5, §6, §7, §8

[5] = test system: Klebsiella pneumoniae 13249; format: cell-based; details: K.p 13249, CRE clinical isolate, MHA agar, 37° C., 16-20 hours, read-out: MIC
Experimental: as §10, §1, §2, §3, §4, §5, §6, §7, §8

[6] = test system: Klebsiella pneumoniae 5846; format: cell-based; details: K.p 5846, CRE clinical isolate, MHA agar, 37° C., 16-20 hours, read-out: MIC
Experimental: as §10, §1, §2, §3, §4, §5, §6, §7, §8

[7] = test system: Klebsiella pneumoniae 8733; format: cell-based; details: K.p 8733, CSE clinical isolate, MHA agar, 37° C., 16-20 hours, read-out: MIC
Experimental: as §10, §1, §2, §3, §4, §5, §6, §7, §8

| MIC [1] [µg/mL] | MIC [2] [µg/mL] | MIC [3] [µg/mL] | MIC [4] [µg/mL] | MIC [5] [µg/mL] | MIC [6] [µg/mL] | MIC [7] [µg/mL] | SMILES | MIC (E. ae 14186) [µg/mL] |
| --- | --- | --- | --- | --- | --- | --- | --- | --- |
| 0.03 (≈ 0.0449 µM) | 0.5 (≈ 0.748 µM) | 1 (≈ 1.5 µM) | > 8 | > 8 | 0.25 (≈ 0.374 µM) | 0.25 (≈ 0.374 µM) | CC1(C)[C@H](NC(=O)/C(=N\O[C@@H](COc2ccc(C(=N)N[C@@H]3CCCNC3)cc2)C(=O)O)c2csc(N)n2)C(=O)N1OS(=O)(=O)O [AIC499, reference compound] | 1 (≈ 1.5 µM) |
| < 0.015 | 0.25 (≈ 0.337 µM) | 0.125 (≈ 0.169 µM) | 2 (≈ 2.7 µM) | 4 (≈ 5.4 µM) | 0.06 (≈ 0.081 µM) | 0.06 (≈ 0.081 µM) | CC1(C)[C@H](NC(=O)/C(=N\O[C@@H](COc2ccc3c(c2)CN(C(=N)N(CCCN)CCCN)C3)C(=O)O)c2csc(N)n2)C(=O)N1OS(=O)(=O)O [Compound 32] | 0.125 (≈ 0.169 µM) |

Further lines, the compound ahead of its results:

| SMILES | MIC [1] [µg/mL] | MIC [2] [µg/mL] | MIC [3] [µg/mL] | MIC [4] [µg/mL] | MIC [5] [µg/mL] | MIC [6] [µg/mL] | MIC [7] [µg/mL] | MIC (E. ae 14186) [µg/mL] |
| --- | --- | --- | --- | --- | --- | --- | --- | --- |
| CC1(C)[C@H](NC(=O)/C(=N\O[C@@H](COc2ccc3c(c2)CN(C(=N)N[C@@H]2CCCNC2)C3)C(=O)O)c2csc(N)n2)C(=O)N1OS(=O)(=O)O [Compound 41] | < 0.015 | 0.25 (≈ 0.352 µM) | 0.25 (≈ 0.352 µM) | > 8 | > 8 | 0.125 (≈ 0.176 µM) | 0.125 (≈ 0.176 µM) | 0.25 (≈ 0.352 µM) |
| CC1(C)[C@H](NC(=O)/C(=N\O[C@@H](COc2ccc3c(c2)CN(C(=N)NOCCN)C3)C(=O)O)c2csc(N)n2)C(=O)N1OS(=O)(=O)O [Compound 43] | 0.06 (≈ 0.0875 µM) | 0.5 (≈ 0.729 µM) | 1 (≈ 1.46 µM) | > 8 | > 8 | 0.5 (≈ 0.729 µM) | 0.25 (≈ 0.365 µM) | 1 (≈ 1.46 µM) |
| CC1(C)[C@H](NC(=O)/C(=N\O[C@@H](COc2ccc3c(c2)CN(C(=N)NCCN)C3)C(=O)O)c2csc(N)n2)C(=O)N1OS(=O)(=O)O [Compound 44] | < 0.015 | 0.25 (≈ 0.373 µM) | 0.25 (≈ 0.373 µM) | 8 (≈ 11.9 µM) | 8 (≈ 11.9 µM) | 0.125 (≈ 0.187 µM) | 0.06 (≈ 0.0896 µM) | 0.25 (≈ 0.373 µM) |
| CC1(C)[C@H](NC(=O)/C(=N\O[C@@H](COc2ccc3c(c2)CN(/C(=N\[C@@H]2CCCNC2)N[C@@H]2CCCNC2)C3)C(=O)O)c2csc(N)n2)C(=O)N1OS(=O)(=O)O [Compound 46] | < 0.015 | 0.25 (≈ 0.315 µM) | 0.5 (≈ 0.631 µM) | 8 (≈ 10.1 µM) | 8 (≈ 10.1 µM) | 0.125 (≈ 0.158 µM) | 0.125 (≈ 0.158 µM) | 0.25 (≈ 0.315 µM) |
